The target in the test is T1, human FXR (NR1H4) (Homo sapiens, UniProt Q96RI1).
T1 construct: host or cells: CHO (Chinese hamster ovary) reporter cells
T1 sequence (Q96RI1 1-486): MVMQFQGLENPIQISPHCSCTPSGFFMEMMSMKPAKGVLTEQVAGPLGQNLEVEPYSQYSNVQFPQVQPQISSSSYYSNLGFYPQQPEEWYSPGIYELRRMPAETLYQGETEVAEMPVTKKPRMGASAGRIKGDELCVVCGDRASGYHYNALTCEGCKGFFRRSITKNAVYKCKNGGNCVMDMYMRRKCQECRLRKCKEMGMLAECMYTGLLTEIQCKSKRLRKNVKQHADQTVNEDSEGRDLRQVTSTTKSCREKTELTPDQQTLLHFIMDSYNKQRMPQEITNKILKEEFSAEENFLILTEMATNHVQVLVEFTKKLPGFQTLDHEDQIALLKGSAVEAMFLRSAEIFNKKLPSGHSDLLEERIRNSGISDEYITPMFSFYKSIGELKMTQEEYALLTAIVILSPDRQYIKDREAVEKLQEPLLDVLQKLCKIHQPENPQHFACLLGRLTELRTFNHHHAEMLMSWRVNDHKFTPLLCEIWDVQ
As to the kind of experiment: Human FXR (NR1H4) Assay: Gal4 promoter driven luciferase reporter transactivation in CHO cells (Indigo Bioscience kit IB00601). As to Efficacy (%): efficacy normalized to CDCA set as 100%. Format: cell-based. As to conditions: for Emax: CHO, read-out: Efficacy (%); for EC50: Human FXR (NR1H4) reporter assay, potency ranges. From the text:
Human FXR (NR1H4) Assay Determination of a ligand mediated Gal4 promoter driven transactivation to quantify ligand binding mediated activation of FXR. FXR Reporter Assay kit purchased from Indigo Bioscience (Catalogue number: IB00601) to determine the potency and efficacy of compound developed by Enanta that can induce FXR activation. The principle application of this reporter assay system is to quantify functional activity of human FXR. The assay utilizes non-human mammalian cells, CHO (Chinese hamster ovary) cells engineered to express human NR1H4 protein (referred to as FXR). Reporter cells also incorporate the cDNA encoding beetle luciferase which catalyzes the substrates and yields photon emission. Luminescence intensity of the reaction is quantified using a plate-reading luminometer, Envision. Reporter Cells include the luciferase reporter gene functionally linked to an FXR responsive promoter. Thus, quantifying changes in luciferase expression in the treated reporter cells provides a sensitive surrogate measure of the changes in FXR activity. […] The assay is according to the manufacturer's instructions. In brief, the assay was performed in white, 96 well plates using final volume of 100 ul containing cells with different doses of compounds. Retrieve Reporter Cells from −80° C. storage. Perform a rapid thaw of the frozen cells by transferring a 10 ml volume of 37° C. cell recovery medium into the tube of frozen cells. Recap the tube of Reporter Cells and immediately place it in a 37° C. water bath for 5-10 minutes. Retrieve the tube of Reporter Cell Suspension from the water bath. Sanitize the outside surface of the tube with a 70% alcohol swab, and then transfer it into the cell culture hood. Dispense 90 μl of cell suspension into each well of the 96-well Assay Plate. Transfer the plate into 37° C. incubator, allowing the cells adherent to the bottom of the well. Dilute compounds in Dilution Plate (DP), and administrate to cells at Assay Plate (AP). DMSO content of the samples was kept at 0.2%. Cells were incubated for additional 22 hours before luciferase activities were measured. Thirty minutes before intending to quantify FXR activity, remove Detection Substrate and Detection Buffer from the refrigerator and place them in a low-light area so that they may equilibrate to room temperature. Remove the plate's lid and discard all media contents by ejecting it into an appropriate waste container. Gently tap the inverted plate onto a clean absorbent paper towel to remove residual droplets. Cells will remain tightly adhered to well bottoms. Add 100 ul of luciferase detection reagent to each well of the assay plate. Allow the assay plate to rest at room temperature for at least 5 minutes following the addition of LDR. Set the instrument (Envision) to perform a single 5 second “plate shake” prior to reading the first assay well. Read time may be 0.5 second (500 mSec) per well.
A general note: A reporter such as luciferase makes a cellular process visible.

As a reminder, the EC50 is the concentration that produces a half-maximal response. A high value points to a less potent agent. `COC(=O)c1cc2sc(N3C4CCC3CC(NCc3c(-c5c(Cl)cccc5Cl)noc3C3CC3)C4)nc2c2ccccc12` (stereo not shown) [Example 200-27]: the Emax amounted to 28.3% and the EC50 was in the range of 1 to 100 nM.

As for `O=C(O)c1cc2sc(N3C4CCC3CC(NCc3c(-c5c(Cl)cccc5Cl)noc3C3CC3)C4)nc2c2ccccc12` (stereo not shown) [Example 200-28], the Emax came to 132% and the EC50 is less than 1 nM.

Turning to `COC(=O)c1cc(C2CC2)c2nc(N3C4CCC3CC(NCc3c(-c5c(Cl)cccc5Cl)noc3C3CC3)C4)sc2c1` (stereo not shown) [Example 200-29], the Emax is 94% and the EC50 lay within 1 to 100 nM.

Regarding `O=C(O)c1cc(C2CC2)c2nc(N3C4CCC3CC(NCc3c(-c5c(Cl)cccc5Cl)noc3C3CC3)C4)sc2c1` (stereo not shown) [Example 200-30], the Emax was 108% and the EC50 was less than 1 nM.

Regarding `O=C(NS(=O)(=O)C1CC1)c1ccc2nc(N3C4CCC3CC(NCc3c(-c5c(Cl)cccc5Cl)noc3C3CC3)C4)sc2c1` (stereo not shown) [Example 201], the Emax amounted to 282% and the EC50 is less than 1 nM.

In the case of `CC1(S(=O)(=O)NC(=O)c2ccc3nc(N4C5CCC4CC(NCc4c(-c6c(Cl)cccc6Cl)noc4C4CC4)C5)sc3c2)CC1` (stereo not shown) [Example 202], the Emax was found to be 279% and the concentration giving a half-maximal response (EC50) was less than 1 nM.

Regarding `O=C(NS(=O)(=O)N1CCCC1)c1ccc2nc(N3C4CCC3CC(NCc3c(-c5c(Cl)cccc5Cl)noc3C3CC3)C4)sc2c1` (stereo not shown) [Example 227], the Emax was 256% and the concentration giving a half-maximal response (EC50) is less than 1 nM.

In the case of `O=C(NS(=O)(=O)N1CCCCC1)c1ccc2nc(N3C4CCC3CC(NCc3c(-c5c(Cl)cccc5Cl)noc3C3CC3)C4)sc2c1` (stereo not shown) [Example 228], the Emax amounted to 140% and the half-maximal effective concentration (EC50) was in the range of 1 to 100 nM.

For the compound `O=C(NS(=O)(=O)C1CCCC1)c1ccc2nc(N3C4CCC3CC(NCc3c(-c5c(Cl)cccc5Cl)noc3C3CC3)C4)sc2c1` (stereo not shown) [Example 231], the Emax was found to be 277% and the EC50 was less than 1 nM.

Consider `O=C(NS(=O)(=O)N1CCOCC1)c1ccc2nc(N3C4CCC3CC(NCc3c(-c5c(Cl)cccc5Cl)noc3C3CC3)C4)sc2c1` (stereo not shown) [Example 234], for which the Emax is 146% and the EC50 was in the range of 100 to 1000 nM.

In the case of `O=C(NS(=O)(=O)C(F)(F)F)c1ccc2nc(N3C4CCC3CC(NCc3c(-c5c(Cl)cccc5Cl)noc3C3CC3)C4)sc2c1` (stereo not shown) [Example 236], the Emax was found to be 75% and the EC50 lay in the range of 1 to 100 nM.

In the case of `CC(C)S(=O)(=O)NC(=O)c1ccc2nc(N3C4CCC3CC(NCc3c(-c5c(Cl)cccc5Cl)noc3C3CC3)C4)sc2c1` (stereo not shown) [Example 237], the Emax worked out at 226% and the EC50 was in the range of 1 to 100 nM.

As to `CC(C)(C)CS(=O)(=O)NC(=O)c1ccc2nc(N3C4CCC3CC(NCc3c(-c5c(Cl)cccc5Cl)noc3C3CC3)C4)sc2c1` (stereo not shown) [Example 239], the Emax was found to be 201% and the EC50 was 1 to 100 nM.

As for `CC(C)(C)S(=O)(=O)NC(=O)c1ccc2nc(N3C4CCC3CC(NCc3c(-c5c(Cl)cccc5Cl)noc3C3CC3)C4)sc2c1` (stereo not shown) [Example 240], the Emax came out at 245% and the EC50 is less than 1 nM.

Regarding `O=C(NS(=O)(=O)c1ccccc1)c1ccc2nc(N3C4CCC3CC(NCc3c(-c5c(Cl)cccc5Cl)noc3C3CC3)C4)sc2c1` (stereo not shown) [Example 257], the Emax was 203% and the EC50 fell in the range of 1 to 100 nM.

In the case of `O=C(NS(=O)(=O)c1nccs1)c1ccc2nc(N3C4CCC3CC(NCc3c(-c5c(Cl)cccc5Cl)noc3C3CC3)C4)sc2c1` (stereo not shown) [Example 268], the Emax stood at 129% and the EC50 lay within 100 to 1000 nM.

In the case of `CN(c1nc2ccc(C(=O)NS(=O)(=O)N(C)C)cc2s1)C1CCC(OCc2c(-c3c(Cl)cccc3Cl)noc2C2CC2)CC1` (stereo not shown) [Example 279], the Emax amounted to 158% and the EC50 was 100 to 1000 nM.

Turning to `CN(C)S(=O)(=O)NC(=O)c1ccc2nc(N3C4CCC3CN(Cc3c(-c5c(Cl)cccc5Cl)noc3C3CC3)C4)sc2c1` [Example 280], the Emax is 242% and the EC50 lay in the range of 1 to 100 nM.

With `CN(C)S(=O)(=O)NC(=O)c1ccc2nc(N3CCN(Cc4c(-c5c(Cl)cccc5Cl)noc4C4CC4)CC3)sc2c1` [Example 281], the Emax stood at 171% and the concentration giving a half-maximal response (EC50) is 1 to 100 nM.

Consider `CN(C)S(=O)(=O)NC(=O)c1ccc2nc(N3CCC(NCc4c(-c5c(Cl)cccc5Cl)noc4C4CC4)CC3)sc2c1` [Example 282], for which the Emax is 142% and the EC50 fell in the range of 1 to 100 nM.

With `CN(C)S(=O)(=O)NC(=O)c1ccc2nc(N3C4CCC3CC(NCc3c(-c5c(Cl)cccc5Cl)noc3C3CC3)C4)sc2c1` (stereo not shown) [Example 283], the Emax was 246% and the EC50 is greater than 1000 nM.

As for `CC(C)(C)c1ccc(S(=O)(=O)NC(=O)c2ccc3nc(N4C5CCC4CC(NCc4c(-c6c(Cl)cccc6Cl)noc4C4CC4)C5)sc3c2)cc1` (stereo not shown) [Example 284], the Emax turned out to be 54% and the EC50 is greater than 1000 nM.

As for `CC(C)(C)c1ccc(S(=O)(=O)NC(=O)c2cccc(N3CCN(Cc4c(-c5c(Cl)cccc5Cl)noc4C4CC4)CC3)c2)cc1` [Example 285], the Emax is 126% and the EC50 is 100 to 1000 nM.

For `O=C(NS(=O)(=O)C1CC1)c1ccc2nc(N3CCC(NCc4c(-c5c(Cl)cccc5Cl)noc4C4CC4)CC3)sc2c1` [Example 291], the Emax came to 171% and the concentration giving a half-maximal response (EC50) was 1 to 100 nM.

Turning to `CN(Cc1c(-c2c(Cl)cccc2Cl)noc1C1CC1)[C@H]1C[C@H]2CC[C@@H](C1)N2c1nc2ccc(C(=O)NS(=O)(=O)C3CC3)cc2s1` [Example 292], the Emax turned out to be 212% and the EC50 was 1 to 100 nM.

As for `CN(Cc1c(-c2c(Cl)cccc2Cl)noc1C1CC1)[C@H]1C[C@H]2CC[C@@H](C1)N2c1nc2ccc(C(=O)NS(=O)(=O)C3(C)CC3)cc2s1` [Example 293], the Emax is 92% and the EC50 lay within 1 to 100 nM.

On to `CC1(S(=O)(=O)NC(=O)c2ccc3nc(N4C5CCC4CC(N(C=O)Cc4c(-c6c(Cl)cccc6Cl)noc4C4CC4)C5)sc3c2)CC1` (stereo not shown) [Example 294], for which the Emax was 130% and the EC50 was greater than 1000 nM.

Take `CC1(S(=O)(=O)NC(=O)c2cc(F)c3nc(N4C5CCC4CC(NCc4c(-c6c(Cl)cccc6Cl)noc4C4CC4)C5)sc3c2)CC1` (stereo not shown) [Example 295]: the Emax is 152% and the EC50 fell in the range of 1 to 100 nM.

`[2H]C([2H])([2H])C1(S(=O)(=O)NC(=O)c2cc(F)c3nc(N4C5CCC4CC(NCc4c(-c6c(Cl)cccc6Cl)noc4C4CC4)C5)sc3c2)CC1` (stereo not shown) [Example 296]: the Emax amounted to 184% and the EC50 was less than 1 nM.

Take `CN(C)S(=O)(=O)NC(=O)c1cc(F)c2nc(N3C4CCC3CC(NCc3c(-c5c(Cl)cccc5Cl)noc3C3CC3)C4)sc2c1` (stereo not shown) [Example 297]: the Emax is 150% and the EC50 was less than 1 nM.

Regarding `O=C(NS(=O)(=O)C1CC1)c1cc(F)c2nc(N3C4CCC3CC(NCc3c(-c5c(Cl)cccc5Cl)noc3C3CC3)C4)sc2c1` (stereo not shown) [Example 298], the Emax was 155% and the concentration giving a half-maximal response (EC50) was in the range of 1 to 100 nM.

`O=CC1(S(=O)(=O)NC(=O)c2cc(F)c3nc(N4C5CCC4CC(NCc4c(-c6c(Cl)cccc6Cl)noc4C4CC4)C5)sc3c2)CC1` (stereo not shown) [Example 299]: the Emax came out at 154% and the EC50 lay within 1 to 100 nM.

For the compound `O=C(NS(=O)(=O)N1CCCCC1)c1cc(F)c2nc(N3C4CCC3CC(NCc3c(-c5c(Cl)cccc5Cl)noc3C3CC3)C4)sc2c1` (stereo not shown) [Example 300], the Emax stood at 143% and the EC50 is less than 1 nM.

Turning to `CN(C)S(=O)(=O)NC(=O)c1ccc2nc(N3C4CCC3CC(NCc3c(-c5c(Cl)cccc5Cl)noc3C3CC3)C4)oc2c1` (stereo not shown) [Example 301], the Emax worked out at 63% and the EC50 was less than 1 nM.

Take `CC1(S(=O)(=O)NC(=O)c2ccc3nc(N4C5CCC4CC(NCc4c(-c6c(Cl)cccc6Cl)noc4C4CC4)C5)oc3c2)CC1` (stereo not shown) [Example 302]: the Emax is 62% and the EC50 lay within 1 to 100 nM.

The values above are taken from patent publication US10450306B2, “Isoxazole analogs as FXR agonists and methods of use thereof” (Enanta Pharmaceuticals, Inc., priority 2016, dated 2019).
